In patent publication US12637435B2, “Nitrogen-containing heterocyclic compound or salt thereof, use thereof, and intermediate thereof” (FUJIFILM Corporation, priority 2020, dated 2026):

What was measured:
[1] = system: human myeloid leukemia cell line HL60; test: Cell growth test, HL60 (CellTiter-Glo); format: cell-based; settings: HL-60, 72 h, HL60 cells, 3 days, CellTiter-Glo luminescence, read-out: Cell growth inhibitory effect (GI50)
Procedure: The cell growth test was carried out using the human myeloid leukemia cell line HL60 (available from ATCC, CRL-240). As a culture medium of HL60 cells, RPMI 1640 (available from FUJIFILM Wako Pure Chemical Corporation, 189-02025) supplemented with 10% fetal bovine serum (available from Thermo Fisher Scientific, Inc., 10437-028), and 1% penicillin-streptomycin (10,000 U/mL, available from Thermo Fisher Scientific, Inc., 15140-122) was used. HL60 cells were seeded on a 384-well plate (available from Corning Inc., 4588) at a cell density of 1×10^3 cells/20 μL/well. After culturing overnight, 5 μL of the test compound having a predetermined concentration was added, and 3 days later, 25 μL of CellTiter-Glo (registered trademark) Luminescent Cell Viability Assay (available from Promega Corporation, G7573) was added, and then the amount of luminescence was measured using an EnVision plate reader (available from PerkinElmer, Inc.). Since the amount of luminescence is proportional to the intracellular concentration of adenosine triphosphate (ATP), the amount of luminescence was used as an indicator of the number of viable cells. The growth inhibitory concentration for each test compound concentration was calculated by the following expression.
(§1) The growth inhibition rate at each test compound concentration was determined, and the 50% growth inhibitory concentration [GI50 (nmol/L)] was calculated using XLfit. Growth inhibition rate (%)=(amount of luminescence in test compound-added well)/(amount of luminescence in DMSO-added well)×100
The abbreviations in the table have the following meanings. • A: GI50 value<100 nmol/L • B: 100 nmol/L≤GI50 value<1,000 nmol/L • C: 1,000 nmol/L≤GI50 value

recombinant human DHODH = target: T1, recombinant human DHODH (Homo sapiens, UniProt Q02127); test: DHODH enzyme reaction inhibition test (DCIP-coupled assay); format: biochemical; settings: recombinant human DHODH 0.175 μg/mL, DCIP absorbance 600 nm, 50 minutes, pH 8.0; read-out: Enzyme reaction inhibitory effect (IC50)
T1 construct: DHODH, 31-395aa, Human, His tag, E. coli, ATGP1615; His tag; purchased ATGen Co. Ltd. ATGP1615; host or cells: E. coli
T1 sequence (Q02127 31-395): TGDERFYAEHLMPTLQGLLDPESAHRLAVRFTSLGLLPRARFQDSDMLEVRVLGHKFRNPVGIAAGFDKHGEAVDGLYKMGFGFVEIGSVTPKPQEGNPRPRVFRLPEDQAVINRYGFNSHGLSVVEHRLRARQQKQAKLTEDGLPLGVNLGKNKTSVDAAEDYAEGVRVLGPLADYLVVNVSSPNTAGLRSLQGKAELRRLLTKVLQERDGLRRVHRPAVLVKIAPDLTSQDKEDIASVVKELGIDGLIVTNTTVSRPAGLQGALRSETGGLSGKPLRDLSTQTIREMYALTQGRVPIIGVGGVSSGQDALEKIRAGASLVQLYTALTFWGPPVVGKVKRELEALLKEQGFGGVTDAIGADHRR
Procedure: The DHODH enzyme assay was carried out with reference to “Benjamin Bader, Wolfgang Knecht, Markus Fries, and Monika Loffler, Expression, Purification, and Characterization of Histidine-Tagged Rat and Human Flavoenzyme Dihydroorotate Dehydrogenase, Protein Expression and Purification, 1998, 13, 414-422.”
The DHODH activity was evaluated using an enzyme assay system that is coupled with an assay in which a blue coloring agent 2,6-dichlorophenolindophenol (DCIP, available from MP Biomedicals, LLC, MP150118) is quenched. Purified recombinant human DHODH (DHODH, 31-395aa, Human, His tag, E. coli, ATGP1615) was purchased from ATGen Co. Ltd. The enzyme assay was carried out in a 384-well plate using a buffer solution containing 100 mmol/L Hepes (available from Dojindo Laboratories, 342-01375), 400 mmol/L NaCl (available from FUJIFILM Wako Pure Chemical Corporation, 191-01665), 10% Glycerol (available from FUJIFILM Wako Pure Chemical Corporation, 075-00616), 0.05% Triton X-100 (available from Sigma-Aldrich Co., LLC, T8787-100ML), 0.2 mmol/L Ubiquinone-10 (available from FUJIFILM Wako Pure Chemical Corporation, 216-00761), 0.1 mmol/L DHO (L-dihydroorotic acid, available from Sigma-Aldrich Co., LLC, D7128), 0.5% DMSO (dimethylsulfoxide, available from FUJIFILM Wako Pure Chemical Corporation, 047-29353), 0.175 μg/mL DHODH, and 0.12 mmol/L DCIP and having a pH adjusted to 8.0 by adding 5 mol/L potassium hydroxide (available from FUJIFILM Wako Pure Chemical Corporation, 168-21815). A test compound with a predetermined concentration was added using Biomek NX (available from Beckman Coulter Inc.), and the enzyme reaction was started by adding the substrate. The enzyme activity was assessed by measuring the decrease in DCIP absorbance (600 nm) for 50 minutes using an EnVision plate-reading spectrophotometer (available from PerkinElmer, Inc.).
as §1, with “enzyme reaction” for “growth”, “enzyme reaction inhibition” for “growth inhibitory”, “[IC50” for “[GI50”, “Enzyme reaction” for “Growth”
The abbreviations in the table have the following meanings. • A: IC50 value<10 nmol/L • B: 10 nmol/L≤IC50 value<100 nmol/L • C: 100 nmol/L≤IC50 value

N#CNC(=O)c1nc(C2CC2)cnc1Nc1cccc(C2CCOCC2)c1OCC(F)(F)F [Example 3-29]
GI50 [1]: < 100 nM | IC50 (recombinant human DHODH): < 10 nM

C[C@H](Oc1c(Nc2nnc(C3CC3)cc2C(=O)NS(C)(=O)=O)cccc1C1CCOCC1)C(F)(F)F [Example 3-63]
GI50 [1]: ≥ 1000 nM | IC50 (recombinant human DHODH): 10 to 100 nM

CS(=O)(=O)NC(=O)c1cc(C2CC2)cnc1Nc1cc(F)cc(C2CCOCC2)c1OCC(F)(F)F [Example 3-42]
GI50 [1]: < 100 nM | IC50 (recombinant human DHODH): < 10 nM

CNS(=O)(=O)NC(=O)c1nc(C2CC2)cnc1Nc1cccc(C2=CCOCC2)c1OCC(F)(F)F [Example 3-20]
GI50 [1]: 100 to 1000 nM | IC50 (recombinant human DHODH): 10 to 100 nM

N#Cc1ccc(-c2cccc(Nc3ncc(C4CC4)nc3C(=O)O)c2OCC(F)(F)F)cc1 [Example 2-4]
GI50 [1]: < 100 nM | IC50 (recombinant human DHODH): < 10 nM

N#Cc1ccc(-c2cc(F)cc(Nc3ncc(C4CC4)nc3C(=O)O)c2OC(F)F)cc1 [Example 2-12]
GI50 [1]: 100 to 1000 nM | IC50 (recombinant human DHODH): 10 to 100 nM

C[C@H](Oc1c(Nc2ncc(C3CC3)nc2C(=O)NS(N)(=O)=O)cccc1C1CCOCC1)C(F)(F)F [Example 3-7]
GI50 [1]: 100 to 1000 nM | IC50 (recombinant human DHODH): < 10 nM

N#CNC(=O)c1cc(C2CC2)cnc1Nc1cccc(-c2ccc(C#N)cc2)c1OCC(F)(F)F [Example 3-39]
GI50 [1]: < 100 nM | IC50 (recombinant human DHODH): < 10 nM

CS(=O)(=O)NC(=O)c1nc(C2CC2)cnc1Nc1cccc(-c2ccc(C#N)cc2)c1OCC(F)(F)F [Example 3-23]
GI50 [1]: < 100 nM | IC50 (recombinant human DHODH): < 10 nM

O=C(O)c1cc(C2CC2)cnc1Nc1cc(F)cc(C2CCOCC2)c1OCC(F)(F)F [Example 2-8]
GI50 [1]: < 100 nM | IC50 (recombinant human DHODH): < 10 nM

CN(C)NC(=O)c1nc(C2CC2)cnc1Nc1cccc(C2=CCOCC2)c1OCC(F)(F)F [Example 1-13, 6-cyclopropyl-3-((3-(3,6-dihydro-2H-pyran-4-yl)-2-(2,2,2-trifluoroethoxy)phenyl)amino)-N,N-dimethylpyrazine-2-carbohydrazide]
GI50 [1]: ≥ 1000 nM | IC50 (recombinant human DHODH): ≥ 100 nM

NS(=O)(=O)NC(=O)c1nc(C2CC2)cnc1Nc1cccc(C2=CCOCC2)c1OCC(F)(F)F [Example 3-10]
GI50 [1]: < 100 nM | IC50 (recombinant human DHODH): < 10 nM

N#CNC(=O)c1nc(C2CC2)cnc1Nc1cc(F)cc(C2=CCOCC2)c1OCC(F)(F)F [Example 3-38]
GI50 [1]: < 100 nM | IC50 (recombinant human DHODH): < 10 nM

C[C@H](Oc1c(Nc2ccc(C3CC3)cc2C(=O)O)ccnc1C1=CCOCC1)C(F)(F)F [Example 1-18]
GI50 [1]: < 100 nM | IC50 (recombinant human DHODH): < 10 nM

C[C@H](Oc1c(Nc2ccc(C3CC3)cc2C(=O)O)cncc1C1=CCOCC1)C(F)(F)F [Example 2-6]
GI50 [1]: < 100 nM | IC50 (recombinant human DHODH): < 10 nM

NCc1nc(C2CC2)cnc1Nc1cccc(C2=CCOCC2)c1OCC(F)(F)F [Example 1-17, 3-(aminomethyl)-5-cyclopropyl-N-(3-(3,6-dihydro-2H-pyran-4-yl)-2-(2,2,2-trifluoroethoxy)phenyl)pyrazine-2-amine]
GI50 [1]: ≥ 1000 nM | IC50 (recombinant human DHODH): ≥ 100 nM

COS(=O)(=O)NC(=O)c1nc(C2CC2)cnc1Nc1cccc(C2=CCOCC2)c1OCC(F)(F)F [Example 3-19]
GI50 [1]: 100 to 1000 nM | IC50 (recombinant human DHODH): 10 to 100 nM

FC(F)(F)COc1c(Nc2ncc(C3CC3)nc2-c2nnn[nH]2)cccc1C1=CCOCC1 [Example 1-6]
GI50 [1]: < 100 nM | IC50 (recombinant human DHODH): < 10 nM

O=C(O)c1cc(C2CC2)ccc1Nc1cncc(C2=CCOCC2)c1OCC(F)(F)F [Example 2-1]
GI50 [1]: 100 to 1000 nM | IC50 (recombinant human DHODH): < 10 nM

N#CNCc1nc(C2CC2)cnc1Nc1cccc(C2=CCOCC2)c1OCC(F)(F)F [Example 1-16, N-((6-cyclopropyl-3-((3-(3,6-dihydro-2H-pyran-4-yl)-2-(2,2,2-trifluoroethoxy)phenyl)amino)pyrazin-2-yl)methyl)cyanamide]
GI50 [1]: 100 to 1000 nM | IC50 (recombinant human DHODH): 10 to 100 nM

N#CNC(=O)c1nc(C2CC2)cnc1Nc1cccc(C2=CCOCC2)c1OCC(F)(F)F [Example 3-1]
GI50 [1]: < 100 nM | IC50 (recombinant human DHODH): < 10 nM

NC(=O)c1nc(C2CC2)cnc1Nc1cccc(C2=CCOCC2)c1OCC(F)(F)F [Example 1-1, 6-cyclopropyl-3-((3-(3,6-dihydro-2H-pyran-4-yl)-2-(2,2,2-trifluoroethoxy)phenyl)amino)pyrazine-2-carboxamide]
GI50 [1]: < 100 nM | IC50 (recombinant human DHODH): 10 to 100 nM

C[C@H](Oc1c(Nc2ccc(C3CC3)cc2C(=O)NS(C)(=O)=O)ccnc1C1=CCOCC1)C(F)(F)F [Example 3-64]
GI50 [1]: 100 to 1000 nM | IC50 (recombinant human DHODH): 10 to 100 nM

O=c1[nH]c(-c2nc(C3CC3)cnc2Nc2cccc(C3=CCOCC3)c2OCC(F)(F)F)no1 [Example 1-7, 3-(6-cyclopropyl-3-((3-(3,6-dihydro-2H-pyran-4-yl)-2-(2,2,2-trifluoroethoxy)phenyl)amino)pyrazin-2-yl)-1,2,4-oxadiazol-5(4H)-one]
GI50 [1]: 100 to 1000 nM | IC50 (recombinant human DHODH): < 10 nM

CONC(=O)c1nc(C2CC2)cnc1Nc1cccc(C2CCOCC2)c1O[C@@H](C)C(F)(F)F [Example 3-12]
GI50 [1]: 100 to 1000 nM | IC50 (recombinant human DHODH): 10 to 100 nM

Cc1cc(C#N)ccc1-c1cccc(Nc2ncc(C3CC3)nc2C(=O)O)c1OCC(F)(F)F [Example 1-5, 3-((4′-cyano-2′-methyl-2-(2,2,2-trifluoroethoxy)-[1,1′-biphenyl]-3-yl)amino)-6-cyclopropylpyrazine-2-carboxylic acid]
GI50 [1]: < 100 nM | IC50 (recombinant human DHODH): < 10 nM

CCc1cnc(Nc2cccc(C3=CCOCC3)c2OCC(F)(F)F)c(C(=O)NS(C)(=O)=O)n1 [Example 3-66]
GI50 [1]: 100 to 1000 nM | IC50 (recombinant human DHODH): < 10 nM

O=C(NS(=O)(=O)C1CC1)c1nc(C2CC2)cnc1Nc1cccc(C2=CCOCC2)c1OCC(F)(F)F [Example 3-21]
GI50 [1]: ≥ 1000 nM | IC50 (recombinant human DHODH): 10 to 100 nM

CN(C)S(=O)(=O)NC(=O)c1nc(C2CC2)cnc1Nc1cccc(C2=CCOCC2)c1OCC(F)(F)F [Example 3-11]
GI50 [1]: ≥ 1000 nM | IC50 (recombinant human DHODH): ≥ 100 nM

CCc1c(Nc2ncc(C3CC3)cc2C(=O)O)cccc1C1CCOCC1 [Example 2-10]
GI50 [1]: < 100 nM | IC50 (recombinant human DHODH): < 10 nM

CS(=O)(=O)NC(=O)c1cc(C2CC2)ncc1Nc1cccc(C2=CCOCC2)c1OCC(F)(F)F [Example 3-61]
GI50 [1]: 100 to 1000 nM | IC50 (recombinant human DHODH): < 10 nM

CS(=O)(=O)NC(=O)c1cc(C2CC2)cnc1Nc1cccc(C2CCOCC2)c1OCC(F)(F)F [Example 3-34]
GI50 [1]: < 100 nM | IC50 (recombinant human DHODH): < 10 nM

Cc1cnc(Nc2cccc(C3=CCOCC3)c2OCC(F)(F)F)c(C(=O)NS(C)(=O)=O)n1 [Example 3-67]
GI50 [1]: 100 to 1000 nM | IC50 (recombinant human DHODH): 10 to 100 nM

CS(=O)(=O)NC(=O)c1nc(C2CC2)cnc1Nc1cccc(-c2ccc(F)cc2)c1OCC(F)(F)F [Example 3-56]
GI50 [1]: < 100 nM | IC50 (recombinant human DHODH): < 10 nM

CS(=O)(=O)NC(=O)c1nc(C2CC2)cnc1Nc1cc(F)cc(-c2ccc(C#N)cc2)c1OC(F)F [Example 3-55]
GI50 [1]: 100 to 1000 nM | IC50 (recombinant human DHODH): 10 to 100 nM

CCOc1ccc(Nc2ncc(C3CC3)nc2C(=O)NS(C)(=O)=O)c(OCC)c1C1=CCOCC1 [Example 3-58]
GI50 [1]: < 100 nM | IC50 (recombinant human DHODH): < 10 nM

CCOc1c(Nc2ncc(C3CC3)cc2C(=O)NS(C)(=O)=O)ccc(F)c1C1=CCOCC1 [Example 3-60]
GI50 [1]: < 100 nM | IC50 (recombinant human DHODH): < 10 nM
